The values that follow come from patent publication US12630509B2, “Heterocyclic NMDA antagonists” (TAKEDA PHARMACEUTICAL COMPANY LIMITED, priority 2019, dated 2026).

One experiment deals with NMDA receptor composed of four subunits including two sets of heterodimers of NR1 and NR2B (GRIN1/GRIN2B) expressed in HEK 293 cells (Homo sapiens, UniProt Q13224). Briefly: NR2B Ca2+ influx assay. The following applies: HEK293, final concentration 10 μM; glutamic acid and glycine induced Ca2+ influx, HEK 293 cells expressing human GRIN1 and GRIN2B; read-out: % inhibited(10 μM). Type of experiment: cell-based. On the procedure: The HEK 293 cells that express GRIN1 and GRIN2B were purchased from ChanTest (human NMDA (NR1/NR2B) receptor-expressing, stable replicating cell line (HEK 293) catalog no. CT6121).
Sequence of NMDA receptor composed of four subunits including two sets of heterodimers of NR1 and NR2B (GRIN1/GRIN2B) expressed in HEK 293 cells (Q13224 27-1484, other chains not shown): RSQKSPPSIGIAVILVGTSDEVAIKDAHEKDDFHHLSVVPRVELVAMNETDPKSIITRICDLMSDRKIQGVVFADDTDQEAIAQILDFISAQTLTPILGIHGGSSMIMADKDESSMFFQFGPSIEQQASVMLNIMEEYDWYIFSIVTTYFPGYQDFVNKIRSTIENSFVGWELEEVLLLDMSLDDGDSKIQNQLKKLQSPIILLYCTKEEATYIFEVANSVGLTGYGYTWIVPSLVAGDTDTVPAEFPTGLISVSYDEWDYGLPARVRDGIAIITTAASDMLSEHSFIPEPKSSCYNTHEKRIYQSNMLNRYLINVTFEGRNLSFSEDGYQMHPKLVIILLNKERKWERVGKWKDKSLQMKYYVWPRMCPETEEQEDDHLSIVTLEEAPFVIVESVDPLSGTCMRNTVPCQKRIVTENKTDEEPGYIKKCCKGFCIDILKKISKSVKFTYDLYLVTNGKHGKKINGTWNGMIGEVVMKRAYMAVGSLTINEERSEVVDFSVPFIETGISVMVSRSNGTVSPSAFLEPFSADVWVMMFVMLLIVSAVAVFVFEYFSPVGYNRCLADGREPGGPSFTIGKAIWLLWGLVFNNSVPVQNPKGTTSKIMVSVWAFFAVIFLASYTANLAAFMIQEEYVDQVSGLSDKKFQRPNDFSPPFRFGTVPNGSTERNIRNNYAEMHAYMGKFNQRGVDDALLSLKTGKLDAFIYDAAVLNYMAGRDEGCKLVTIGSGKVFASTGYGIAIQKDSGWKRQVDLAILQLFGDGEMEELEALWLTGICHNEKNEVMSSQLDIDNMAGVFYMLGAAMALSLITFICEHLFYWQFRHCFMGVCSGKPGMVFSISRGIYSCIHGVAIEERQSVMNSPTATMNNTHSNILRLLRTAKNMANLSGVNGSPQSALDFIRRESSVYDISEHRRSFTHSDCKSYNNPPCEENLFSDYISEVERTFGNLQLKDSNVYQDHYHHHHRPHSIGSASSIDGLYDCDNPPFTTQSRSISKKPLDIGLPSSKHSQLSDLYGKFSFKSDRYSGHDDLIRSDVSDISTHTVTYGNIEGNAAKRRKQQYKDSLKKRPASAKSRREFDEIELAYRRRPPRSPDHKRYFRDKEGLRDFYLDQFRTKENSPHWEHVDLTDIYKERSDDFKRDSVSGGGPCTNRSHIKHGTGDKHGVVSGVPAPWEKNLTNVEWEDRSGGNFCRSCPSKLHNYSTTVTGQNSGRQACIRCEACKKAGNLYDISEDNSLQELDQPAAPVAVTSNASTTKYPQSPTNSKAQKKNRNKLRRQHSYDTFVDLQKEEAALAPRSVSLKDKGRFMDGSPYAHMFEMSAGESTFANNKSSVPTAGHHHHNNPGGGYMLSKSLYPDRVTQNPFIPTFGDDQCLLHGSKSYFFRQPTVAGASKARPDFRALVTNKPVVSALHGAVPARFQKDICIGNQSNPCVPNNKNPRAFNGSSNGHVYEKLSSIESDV
Intracellular calcium-ion (Ca^2+) influx caused by glycine and glutamic acid respectively binding to NR1 and NR2B was used as an index of NMDA receptor activation.
The HEK 293 cells expressing GRIN1 and GRIN2B were cultured in a cell culture flask in an incubator (37° C., in 5% CO2) using a DMEM/F-12 (Cosmo Bio, 10-092-CM) medium supplemented with 10% FBS (fetal bovine serum, AusGene), 100 units/mL penicillin, 100 μg/mL streptomycin, 500 μg/mL neomycin, 100 μg/mL Zeocin (registered trademark of Invitrogen), and 5 μg/mL blasticidin.
On the day before the assay, the cells were detached from the flask by trypsinization, suspended in a seeding medium (DMEM (Invitrogen, 31053) supplemented with 10% FBS, 100 units/mL penicillin, and 100 μg/mL streptomycin) so as to be 8×10^5 cells/mL, seeded at 25 μL per well in a 384-well plate (Falcon, 356663) so as to be 20,000 cells/well, and cultured overnight using the incubator. On the day of the assay, tetracycline (Wako Pure Chemical, 209-16561) was diluted with the seeding medium at 2 μg/mL, and added at 25 μL/well to the plate into which the cells were seeded, and this was cultured for 2 hours in the incubator. Afterward, the medium was removed and washed with an assay buffer (137 mM NaCl, 4 mM KCl, 1.8 mM CaCl2), 10 mM HEPES (pH 7.2), 10 mM glucose, 0.1% BSA) at 50 μL/well. Next, a loading buffer (buffer wherein 2.5 μM Fluo-4 AM, 2 mM amaranth, and 1 mM tartrazine are added to the assay buffer) was added at 25 μL/well, and this was incubated in the incubator for 30 minutes and for 15 minutes at room temperature. Solutions wherein the Example compounds were diluted with the above-mentioned assay buffer so as to be 30 μM (final concentration 10 μM) were added at 25 μL/well, and these were left standing for 15 minutes at room temperature. Using FDSS7000EX/μCELL (Hamamatsu Photonics), an assay buffer including 30 μM glutamic acid and 30 μM glycine was added at 25 μL/well, and a fluorescence signal of an Excitation wavelength of 480 nm and an Emission wavelength of 540 nm was measured every 3 seconds for 5 minutes. The inhibitory activity was calculated as a relative activity value (inhibitory rate) wherein relative to an integrated value of florescence values of each well, an integrated value of fluorescence values of a well into which an assay buffer without glutamic acid and glycine was defined as 100% inhibition.
As to `Cc1ccc(Oc2ccc(CN3C(=O)CCC3C)cc2)cc1` (centres unmarked) [Example 1, 5-methyl-1-{[4-(4-methylphenoxy)phenyl]methyl}pyrrolidin-2-one], the inhibition at 10 µM stood at 99%.
Same read-out and setting: under `Cc1ccc(Oc2cnc(CN3C(=O)CCC3C)cn2)cc1` (centres unmarked) [Example 4, 5-methyl-1-{[5-(4-methylphenoxy)pyrazin-2-yl]methyl}yrrolidin-2-one] stands 93%; under `Cc1ccc(Oc2ncc(CN3C(=O)CCC3C)cn2)cc1` (centres unmarked) [Example 5, 5-methyl-1-{[2-(4-methylphenoxy)pyrimidin-5-yl]methyl}pyrrolidin-2-one], 91%.
The same measure, in the same setting: with `Cc1ccc(Oc2ccc(CN3C(=O)C[C@H](O)[C@@H]3C)cc2)cc1` [Example 6, (4S,5S)-4-hydroxy-5-methyl-1-{[4-(4-methylphenoxy)phenyl]methyl}pyrrolidin-2-one] the figure was 97%; with `CC[C@H]1[C@@H](O)CC(=O)N1Cc1ccc(Oc2ccc(C)cc2)cc1` [Example 7, (4S,5S)-5-ethyl-4-hydroxy-1-{[4-(4-methylphenoxy)phenyl]methyl}pyrrolidin-2-one], 98%.
The same measure, in the same setting: under `Cc1ccc(Oc2cnc(CN3C(=O)CCC3C)nc2)cc1` (centres unmarked) [Example 8, 5-methyl-1{[5-(4-methylphenoxy)pyrimidin-2-yl]methyl}pyrrolidin-2-one] stands 53%; under `C[C@H]1[C@@H](O)CC(=O)N1Cc1ccc(Oc2ccc(F)cc2)cc1` [Example 9, (4S,5S)-1-{[4-(4-fluorophenoxy)phenyl]methyl}-4-hydroxy-5-methylpyrrolidin-2-one], 96%; under `Cc1ccc(Oc2ccc(CN3C(=O)C[C@@H](O)[C@@H]3C)cc2)cc1` [Example 10, (4R,5S)-4-hydroxy-5-methyl-1-{[4-(4-methylphenoxy)phenyl]methyl}pyrrolidin-2-one], 94%.
Take `Cc1ccc(Oc2ccc(CN3C(=O)C[C@H](O)[C@H]3C)cc2)cc1` [Example 11, (4S,5R)-4-hydroxy-5-methyl-1-{[4-(4-methylphenoxy)pheny]methyl}pyrrolidin-2-one]: the inhibition at 10 µM is 91%.
The same measure, in the same setting: with `Cc1ccc(Oc2ccc(CN3C(=O)C[C@@H](O)[C@H]3C)cc2)cc1` [Example 12, (4R,5R)-4-hydroxy-5-methyl-1-{[4-(4-methylphenoxy)pheny]methyl}pyrrolidin-2-one] the figure was 93%; with `Cc1ccc(Oc2ccc(CN3C(=O)C[C@H](O)[C@@H]3C)cn2)cc1` [Example 13, (4S,5S)-4-hydroxy-5-methyl-1-{[6-(4-methylphenoxy)pyridin-3-yl]methyl}pyrrolidin-2-one], 97%; with `Cc1ccc(Oc2ncc(CN3C(=O)C[C@H](O)[C@@H]3C)cn2)cc1` [Example 15, (4S,5S)-4-hydroxy-5-methyl-1-{[2-(4-methylphenoxy)pyrimidin-5-yl]methyl}pyrrolidin-2-one], 90%.
Still for that read-out and setting: under `Cc1ccc(Oc2ccc(CN3C(=O)C[C@H](O)[C@@H]3C)nc2)cc1` [Example 16, (4S,5S)-4-hydroxy-5-methyl-1-{[5-(4-methylphenoxy)pyridin-2-yl]methyl}pyrrolidin-2-one] stands 95%; under `Cc1ccc(Oc2ccc(CN3C(=O)OC[C@@H]3C)cc2)cc1` [Example 18, (4S)-4-methy-3-{[4-(4-methylphenoxy)phenyl]methyl}1,3-oxazolidin-2-one], 98%; under `Cc1ccc(Oc2cnc(CN3C(=O)C[C@H](O)[C@@H]3C)cn2)cc1` [Example 19, (4S,5S)-4-hydroxy-5-methyl-1-{[5-(4-methylphenoxy)pyrazin-2-yl]methyl}pyrrolidin-2-one], 82%.
Same read-out and setting: with `Cc1ccc(Oc2ccc(CN3C(=O)OC[C@@H]3C)cn2)cc1` [Example 20, (4S)-4-methyl-3-{[6-(4-methylphenoxy)pyridin-3-yl]methyl}-1,3-oxazolidin-2-one] the figure was 97%; with `Cc1ccc(Oc2ccc(CN3C(=O)CC[C@@H]3C)cn2)cc1` [Example 21, (5S)-5-methyl-1-{[6-(4-methylphenoxy)pyridin-3-yl]methyl}pyrrolidin-2-one], 98%; with `Cc1ccc(Oc2ncc(CN3C(=O)CC[C@@H]3C)cn2)cc1` [Example 22, (5S)-5-methyl-1-{[2-(4-methylphenoxy)pyrimidin-5-yl]methyl}pyrrolidin-2-one], 95%.
Consider `Cc1ccc(Oc2ncc(CN3C(=O)OC[C@@H]3C)cn2)c(F)c1` [Example 23, (4S)-3-{[2-(2-fluoro-4-methylphenoxy)pyrimidin-5-yl]methyl}-4-methyl-1,3-oxazolidin-2-one], for which the inhibition at 10 µM was 94%.
For the compound `C[C@H]1COC(=O)N1Cc1cnc(Oc2c(F)cc(F)cc2F)nc1` [Example 24, (4S)-4-methyl-3-{[2-(2,4,6-trifluorophenoxy)pyrimidin-5-yl]methyl}-1,3-oxazolidin-2-one], the inhibition at 10 µM stood at 93%.
On the same count and under the same terms, under `Cc1ccc(Oc2ccc(CN3C(=O)OC[C@@H]3C)cn2)c(F)c1` [Example 25, (4S)-3-{[6-(2-fluoro-4-methylphenoxy)pyridin-3-y]methyl}-4-methyl-1,3-oxazolidin-2-one] stands 96%; under `Cc1ccc(Oc2ccc(CN3C(=O)C[C@H](O)[C@@H]3C)cn2)c(F)c1` [Example 26, (4S,5S)-1-{[6-(2-fluoro-4-methylphenoxy)pyridin-3-yl]methyl}-4-hydroxy-5-methylpyrrolidin-2-one], 97%; under `C[C@H]1[C@@H](O)CC(=O)N1Cc1ccc(Oc2c(F)cc(F)cc2F)nc1` [Example 27, (4S,5S)-4-hydroxy-5-methyl-1-{[6-(2,4,6-trifluorophenoxy)pyridin-3-yl]methyl}pyrrolidin-2-one], 97%.
Same read-out and setting: under `C[C@H]1COC(=O)N1Cc1ccc(Oc2c(F)cc(F)cc2F)nc1` [Example 28, (4S)-4-methyl-3-{[6-(2,4,6-trifluorophenoxy)pyridin-3-yl]methyl}-1,3-oxazolidin-2-one] stands 96%; under `Cc1ccc(Oc2ccc(CN3C(=O)CCC3C(F)(F)F)cn2)cc1` (centres unmarked) [Example 29, 1-{[6-(4-methylphenoxy)pyridin-3-yl]methyl}-5-(trifluoromethyl)pyrrolidin-2-one], 93%.
The same measure, in the same setting: with `Cc1ccc(Oc2ncc(CN3C(=O)OC[C@@H]3C)cn2)cc1` [Example 30, (4S)-4-methyl-3-{[2-(4-methylphenoxy)pyrimidin-5-yl]methyl}-1,3-oxazolidin-2-one] the figure was 90%.

The experiment is the same for the next values; noted with them: final concentration 10 μM; glutamic acid and glycine induced Ca2+ influx, HEK 293 cells expressing human GRIN1 and GRIN2B.
Consider `Cc1ccc(Oc2ccc(CN3C(=O)C[C@H](O)[C@@H]3C)cn2)cc1.Cl` [Example 14, (4S,5S)-4-hydroxy-5-methyl-1-{[6-(4-methylphenoxy)pyridin-3-yl]methyl}pyrrolidin-2-one], for which the “% inhibited(10 μM)” value is 96%.

Still in this experiment, the particulars now being: final concentration 10 μM; glutamic acid and glycine induced Ca2+ influx, HEK 293 cells expressing human GRIN1 and GRIN2B; 10 µM.
Regarding `Cc1ccc(Oc2ccc(CN3C(=O)CCC3C)cc2)cc1` (single isomer, unassigned) [Example 2, 5-methyl-1-{[4-(4-methylphenoxy)pheny]methyl}pyrrolidin-2-one (optical isomer)], the “% inhibited(10 μM)” value is listed as 98%.
Consider `Cc1ccc(Oc2ccc(CN3C(=O)CCC3C)cc2)cc1` (single isomer, unassigned) [Example 3, 5-methyl-1-{[4-(4-methylphenoxy)phenyl]methyl}pyrrolidin-2-one (optical isomer)], for which the “% inhibited(10 μM)” value is listed as 99%.
